This note sets out measurements from patent US20100168079A1 (priority 2008, published 2010).

For orientation: IC50 means the midpoint of a concentration-inhibition curve.

The structures appear in SMILES notation.

The target in the experiment is T1, human S1P1 receptors (Homo sapiens, UniProt P21453).
T1 construct: myc (N); expressed in transfected cells; host or cells: HeLa (human cervix carcinoma, ATCC CCL2), HeLa-S1P1/Gα16 cell clone 1
T1 sequence (P21453 whole entry): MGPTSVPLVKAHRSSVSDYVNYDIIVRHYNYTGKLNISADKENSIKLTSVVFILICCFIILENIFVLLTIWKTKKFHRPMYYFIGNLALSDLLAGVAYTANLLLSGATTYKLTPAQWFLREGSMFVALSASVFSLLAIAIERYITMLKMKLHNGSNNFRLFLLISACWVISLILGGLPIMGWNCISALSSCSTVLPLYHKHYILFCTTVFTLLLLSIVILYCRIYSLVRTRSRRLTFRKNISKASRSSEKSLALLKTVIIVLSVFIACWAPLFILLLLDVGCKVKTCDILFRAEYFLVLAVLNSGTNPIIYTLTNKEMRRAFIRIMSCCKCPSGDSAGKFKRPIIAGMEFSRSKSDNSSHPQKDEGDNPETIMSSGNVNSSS
As to the kind of experiment: Human S1P1 Receptor Calcium FLIPR Antagonist Assay (HeLa Gα16 S1P1). Type of experiment: cell-based. The note with it: relative antagonism of Ca2+ signal evoked by probing agonist GNF-AC-1 at EC80; HeLa-S1P1/Gα16 cells. On the procedure: Human S1P1 Receptor Calcium FLIPR Antagonist Assay
The cells are plated in 384 well black plates (10′000 cells per well). […] After washing, the cells are transferred to the FLIPR. The test compounds are added at different concentrations […]) in HBSS in the presence of 0.1% BSA and changes in fluorescence are recorded (indication of agonism). The probing agonist is added 20-30 minutes afterwards to the wells at a concentration giving 80% of the maximal activity (EC80). After each addition, time points are collected as follows: 20 time points (2 seconds) before the addition of the agonist (Fmin) and 60 time points (1 or 2 seconds) after the addition of the probing agonist. This allows the determination of the maximal fluorescence (Fmax). The ratio (Fmax-Fmin)/Fmin is plotted against the log of the concentration of the test compounds and the IC50 (relative antagonism) is calculated using the XLfit-4 software. […] A concentration-response curve of the probing agonist is determined on each plate in parallel.
As to `Cc1cc(C(C)Nc2cccc(-c3cc(F)c(C(=O)N[C@@H](C)C(=O)O)c(F)c3)c2)ccc1Cl` (stereo partly drawn) [Example 50, (S)-2-({3′-[1-(4-Chloro-3-methyl-phenyl)-ethylamino]-3,5-difluoro-biphenyl-4-carbonyl}-amino)-propionic acid], the 50% inhibitory concentration (IC50) stood at 3 nM.

Consider `Cc1cc(C(C)Nc2cccc(-c3cc(F)c(C(=O)N(C)[C@@H](C)C(=O)O)c(F)c3)c2)ccc1Cl` (stereo partly drawn) [Example 51, (S)-2-({3′-[1-(4-Chloro-3-methyl-phenyl)-ethylamino]-3,5-difluoro-biphenyl-4-carbonyl}-methyl-amino)-propionic acid], for which the IC50 is 6 nM.

For `Cc1cc(C(C)Nc2cccc(-c3ccc(C(=O)N[C@@H](C)C(=O)O)c(Cl)c3)c2)cc(C)c1Cl` (stereo partly drawn) [Example 52, (S)-2-({3-Chloro-3′-[1-(4-chloro-3,5-dimethyl-phenyl)-ethylamino]-biphenyl-4-carbonyl}-amino)-propionic acid], the half-maximal inhibitory concentration (IC50) came out at 1 nM.

Turning to `Cc1cc(C(C)Nc2cccc(-c3ccc(C(=O)N(C)[C@@H](C)C(=O)O)c(Cl)c3)c2)cc(C)c1Cl` (stereo partly drawn) [Example 53, (S)-2-({3-Chloro-3′-[1-(4-chloro-3,5-dimethyl-phenyl)-ethylamino]-biphenyl-4-carbonyl}-methyl-amino)-propionic acid], the IC50 amounted to 5 nM.

As to `Cc1cc(C(C)Nc2cccc(-c3ccc(C(=O)N(C)[C@@H](C)C(=O)O)c(F)c3)c2)cc(C)c1Cl` (stereo partly drawn) [Example 55, (S)-2-({3′-[1-(4-Chloro-3,5-dimethyl-phenyl)-ethylamino]-3-fluoro-biphenyl-4-carbonyl}-methyl-amino)-propionic acid], the IC50 stood at 9 nM.

Take `Cc1cc(C(C)Nc2cccc(-c3cc(F)c(C(=O)N[C@@H](C)C(=O)O)c(F)c3)c2)cc(C)c1Cl` (stereo partly drawn) [Example 56, (S)-2-({3′-[1-(4-Chloro-3,5-dimethyl-phenyl)-ethylamino]-3,5-difluoro-biphenyl-4-carbonyl}-amino)-propionic acid]: the IC50 was 1 nM.

For `Cc1cc(C(C)Nc2cccc(-c3cc(F)c(C(=O)N(C)[C@@H](C)C(=O)O)c(F)c3)c2)cc(C)c1Cl` (stereo partly drawn) [Example 57, (S)-2-({3′-[1-(4-Chloro-3,5-dimethyl-phenyl)-ethylamino]-3,5-difluoro-biphenyl-4-carbonyl}-methyl-amino)-propionic acid], the IC50 was found to be 6 nM.

With `CCC(Nc1cccc(-c2ccc(C(=O)N(C)[C@@H](C)C(=O)O)c(C)c2)c1)c1ccc(Cl)c(C)c1` (stereo partly drawn) [Example 58, (S)-2-({3′-[1-(4-Chloro-3-methyl-phenyl)-propylamino]-3-methyl-biphenyl-4-carbonyl}-methyl-amino)-propionic acid], the half-maximal inhibitory concentration (IC50) worked out at 2 nM.

On to `Cc1cc(-c2cccc(NC(C)c3cc(C)c(Cl)c(C)c3)c2)ccc1C(=O)N(C)[C@@H](C)C(=O)O` (stereo partly drawn) [Example 59, (S)-2-({3′-[1-(4-Chloro-3,5-dimethyl-phenyl)-ethylamino]-3-methyl-biphenyl-4-carbonyl}-methyl-amino)-propionic acid], for which the IC50 was determined as 3 nM.

Consider `CCC(Nc1cccc(-c2ccc(C(=O)N[C@@H](C)C(=O)O)c(Cl)c2)c1)c1ccc(Cl)c(C)c1` (stereo partly drawn) [Example 60, (S)-2-({3-Chloro-3′-[1-(4-chloro-3-methyl-phenyl)-propylamino]-biphenyl-4-carbonyl}-amino)-propionic acid], for which the IC50 is 1 nM.

For the compound `CCC(Nc1cccc(-c2ccc(C(=O)N(C)[C@@H](C)C(=O)O)c(Cl)c2)c1)c1ccc(Cl)c(C)c1` (stereo partly drawn) [Example 61, (S)-2-({3-Chloro-3′-[1-(4-chloro-3-methyl-phenyl)-propylamino]-biphenyl-4-carbonyl}-methyl-amino)-propionic acid], the IC50 came to 1 nM.

Consider `Cc1cc(C(C)Nc2cccc(-c3ccc(C(=O)N[C@@H](C)C(=O)O)c(C(F)(F)F)c3)c2)ccc1Cl` (stereo partly drawn) [Example 62, (S)-2-({3′-[1-(4-Chloro-3-methyl-phenyl)-ethylamino]-3-trifluoromethyl-biphenyl-4-carbonyl}-amino)-propionic acid], for which the IC50 came to 1 nM.

For the compound `Cc1cc(C(C)Nc2cccc(-c3ccc(C(=O)N(C)[C@@H](C)C(=O)O)c(C(F)(F)F)c3)c2)ccc1Cl` (stereo partly drawn) [Example 63, (S)-2-({3′-[1-(4-Chloro-3-methyl-phenyl)-ethylamino]-3-trifluoromethyl-biphenyl-4-carbonyl}-methyl-amino)-propionic acid], the concentration for half-maximal inhibition (IC50) was 2 nM.

Consider `Cc1cc(C(C)Nc2cccc(-c3ccc(C(=O)N[C@@H](C)C(=O)O)c(C(F)(F)F)c3)c2)cc(C)c1Cl` (stereo partly drawn) [Example 64, (S)-2-({3′-[1-(4-Chloro-3,5-dimethyl-phenyl)-ethylamino]-3-trifluoromethyl-biphenyl-4-carbonyl}-amino)-propionic acid], for which the IC50 amounted to 1 nM.

Consider `Cc1cc(C(C)Nc2cccc(-c3ccc(C(=O)N(C)[C@@H](C)C(=O)O)c(C(F)(F)F)c3)c2)cc(C)c1Cl` (stereo partly drawn) [Example 65, (S)-2-({3′-[1-(4-Chloro-3,5-dimethyl-phenyl)-ethylamino]-3-trifluoromethyl-biphenyl-4-carbonyl}-methyl-amino)-propionic acid], for which the IC50 was 6 nM.

Take `CCC(Nc1cccc(-c2ccc(C(=O)N[C@@H](C)C(=O)O)c(C(F)(F)F)c2)c1)c1ccc(Cl)c(C)c1` (stereo partly drawn) [Example 66, (S)-2-({3′-[1-(4-Chloro-3-methyl-phenyl)-propylamino]-3-trifluoromethyl-biphenyl-4-carbonyl}-amino)-propionic acid]: the half-inhibitory concentration (IC50) came to 3 nM.

As to `CCC(Nc1cccc(-c2ccc(C(=O)N(C)[C@@H](C)C(=O)O)c(C(F)(F)F)c2)c1)c1ccc(Cl)c(C)c1` (stereo partly drawn) [Example 67, (S)-2-({3′-[1-(4-Chloro-3-methyl-phenyl)-propylamino]-3-trifluoromethyl-biphenyl-4-carbonyl}-methyl-amino)-propionic acid], the IC50 was 3 nM.

Regarding `Cc1cc(C(C)Nc2cccc(-c3cc(C)c(C(=O)NCC(=O)O)c(C)c3)c2)ccc1Cl` (centres unmarked) [Example 68, ({3′-[1-(4-Chloro-3-methyl-phenyl)-ethylamino]-3,5-dimethyl-biphenyl-4-carbonyl}-amino)-acetic acid], the IC50 was 1 nM.

Regarding `COC[C@H](NC(=O)c1c(C)cc(-c2cccc(NC(C)c3ccc(Cl)c(C)c3)c2)cc1C)C(=O)O` (stereo partly drawn) [Example 69, (S)-2-({3′-[1-(4-Chloro-3-methyl-phenyl)-ethylamino]-3,5-dimethyl-biphenyl-4-carbonyl}-amino)-3-methoxy-propionic acid], the half-maximal inhibitory concentration (IC50) came to 2 nM.

`Cc1cc(C(C)Nc2cccc(-c3cc(C)c(C(=O)N[C@@H](CCCCN)C(=O)O)c(C)c3)c2)ccc1Cl` (stereo partly drawn) [Example 70, (S)-6-Amino-2-({3′-[1-(4-chloro-3-methyl-phenyl)-ethylamino]-3,5-dimethyl-biphenyl-4-carbonyl}-amino)-hexanoic acid]: the IC50 came to 2 nM.

Take `Cc1cc(C(C)Nc2cccc(-c3cc(C)c(C(=O)NC4(C(=O)O)CCC4)c(C)c3)c2)ccc1Cl` (centres unmarked) [Example 72, 1-({3′-[1-(4-Chloro-3-methyl-phenyl)-ethylamino]-3,5-dimethyl-biphenyl-4-carbonyl}-amino)-cyclobutanecarboxylic acid]: the IC50 amounted to 2 nM.

For `Cc1cc(C(C)Nc2cccc(-c3ccc(C(=O)N(C)[C@@H](C)C(=O)O)c(C)c3)c2)ccc1Cl` (some centres unmarked) [Example 76], the IC50 amounted to 3 nM.

`Cc1cc(-c2cccc(NC(C)c3ccc(Cl)c(Cl)c3)c2)ccc1C(=O)N(C)[C@@H](C)C(=O)O` (stereo partly drawn) [Example 78, (S)-2-({3′-[1-(3,4-Dichloro-phenyl)-ethylamino]-3-methyl-biphenyl-4-carbonyl}-methyl-amino)-propionic acid]: the 50% inhibitory concentration (IC50) is 7 nM.

Turning to `Cc1cc(C(C)Nc2cccc(-c3cc(C)c(C(=O)NC4(C(=O)O)CNC4)c(C)c3)c2)ccc1Cl` (centres unmarked) [Example 79, 3-({3′-[1-(4-Chloro-3-methyl-phenyl)-ethylamino]-3,5-dimethyl-biphenyl-4-carbonyl}-amino)-azetidine-3-carboxylic acid], the IC50 was 2 nM.

`Cc1cc(C(C)N(C)c2cccc(-c3cc(C)c(C(=O)N[C@@H](C)C(=O)O)c(C)c3)c2)ccc1Cl` (stereo partly drawn) [Example 80, (S)-2-[(3′-{[1-(4-Chloro-3-methyl-phenyl)-ethyl]-methyl-amino}-3,5-dimethyl-biphenyl-4-carbonyl)-amino]-propionic acid]: the half-inhibitory concentration (IC50) was found to be 4 nM.

For `CCC(Nc1ccc(F)c(-c2ccc(C(=O)N(C)[C@@H](C)C(=O)O)c(C)c2)c1)c1ccc(Cl)c(C)c1` (stereo partly drawn) [Example 86, (S)-2-({5′-[1-(4-Chloro-3-methyl-phenyl)-propylamino]-2′-fluoro-3-methyl-biphenyl-4-carbonyl}-methyl-amino)-propionic acid], the IC50 is 6 nM.

On to `Cc1cc(C(C)Nc2ccc(F)c(-c3ccc(C(=O)N(C)[C@@H](C)C(=O)O)c(Cl)c3)c2)ccc1Cl` (stereo partly drawn) [Example 87, (S)-2-({3-Chloro-5′-[1-(4-chloro-3-methyl-phenyl)-ethylamino]-2′-fluoro-biphenyl-4-carbonyl}-methyl-amino)-propionic acid], for which the IC50 amounted to 4 nM.

For `CCC(Nc1ccc(F)c(-c2ccc(C(=O)N(C)[C@@H](C)C(=O)O)c(Cl)c2)c1)c1ccc(Cl)c(C)c1` (some centres unmarked) [Example 88], the IC50 amounted to 5 nM.

For the compound `CCC(Nc1ccc(F)c(-c2ccc(C(=O)N(C)[C@@H](C)C(=O)O)c(C(F)(F)F)c2)c1)c1ccc(Cl)c(C)c1` (stereo partly drawn) [Example 89, (S)-2-({5′-[1-(4-Chloro-3-methyl-phenyl)-propylamino]-2′-fluoro-3-trifluoromethyl-biphenyl-4-carbonyl}-methyl-amino)-propionic acid], the IC50 came out at 13 nM.
